pEC50: −log10 of the molar value. Calls of active or inactive are those of the source. The rule behind the calls is not given here.
Key:
[1] = tested on: Human alphaherpesvirus 3; assay: The compound was tested for its effective concentration required to reduce virus plaque formation by using Varicella-Zoster virus OKA strain; format: functional, organism-based
[2] = tested on: Human alphaherpesvirus 3; assay: The compound was tested for its effective concentration required to reduce virus plaque formation by using TK (thymidine kinase -deficient) -Varicella-Zoster virus YS/R strain; format: functional, organism-based
[3] = tested on: Human alphaherpesvirus 3; assay: The compound was tested for its effective concentration required to reduce virus plaque formation by using TK (thymidine kinase -deficient)-Varicella-Zoster virus 07/1 strain; format: functional, organism-based
[4] = tested on: Human alphaherpesvirus 3; assay: The compound was tested for its effective concentration required to reduce virus plaque formation by using Varicella-Zoster virus YS strain; format: functional, organism-based
[5] = tested on: HEL; assay: The compound was tested for cytotoxic concentration required to inhibit Hel cell growth by 50%; format: functional; settings: Homo sapiens
[6] = The compound was tested for its minimal cytotoxic concentration required to alter microscopically detectable cell morphology; format: functional
[7] = tested on: Human alphaherpesvirus 3; assay: The compound was tested for its effective concentration required to reduce virus plaque formation by using TK- (thymidine kinase -deficient)-Varicella-Zoster virus 07/1 strain; format: functional, organism-based
[8] = tested on: Human immunodeficiency virus 1; assay: In vitro activity of compound against HIV-1; Not active; format: functional, organism-based
[9] = tested on: Cytomegalovirus; assay: In vitro activity against Cytomegalovirus virus; format: functional, organism-based
[10] = tested on: Human alphaherpesvirus 1; assay: In vitro activity against Herpes simplex virus-1; Not active; format: functional, organism-based
[11] = tested on: Human alphaherpesvirus 2; assay: In vitro activity against Herpes simplex virus-2; format: functional, organism-based
[12] = tested on: Cytomegalovirus; assay: Compound was tested (in vitro) against Cytomegalovirus virus or HIV-1; Not active; format: functional, organism-based
[13] = tested on: Human alphaherpesvirus 2; assay: Compound was tested (in vitro) against Herpes simplex virus-2; Not active; format: functional, organism-based
[14] = tested on: Human alphaherpesvirus 2; assay: Compound was tested (in vitro) against Herpes simplex virus-2; format: functional, organism-based
[15] = tested on: Cytomegalovirus; assay: Compound was tested (in vitro) against Cytomegalovirus virus or HIV-1; format: functional, organism-based

Row | pEC50 [2] | pEC50 [7] | SMILES | pEC50 [1] | pEC50 [3] | pEC50 [4] | CC50 [5] [µM] | MCC [6] [µM] | Activity [8] | Activity [9] | Activity [10] | Activity [11] | Activity [12] | Activity [13] | Activity [14] | Activity [15]
1 | 4.51 | – | O=c1[nH]c(=O)n([C@H]2C[C@H](O)[C@@H](CO)O2)cc1C#CCCCCCCCCCI | 4.89 | 4.44 | 5.22 | 68 | > 50 | – | – | – | – | – | – | – | –
2 | 4.64 | 4.48 | O=c1[nH]c(=O)n([C@H]2C[C@H](O)[C@@H](CO)O2)cc1C#CCCCCCCCCCF | 4.59 | – | 4.66 | 116 | 200 | – | – | – | – | – | – | – | –
3 | 5.60 | – | O=c1[nH]c(=O)n([C@H]2C[C@H](O)[C@@H](CO)O2)cc1C#CCCCCCCCCCBr | 5.96 | 4.80 | 6.10 | 97 | 50 | – | – | – | – | – | – | – | –
4 | 5.02 | – | O=c1[nH]c(=O)n([C@H]2C[C@H](O)[C@@H](CO)O2)cc1C#CCCCCCCCCCCl | 5.44 | 5.00 | 5.55 | 74 | 200 | – | – | – | – | – | – | – | –

The remaining lines, values behind:

Row | SMILES | pEC50 [2] | pEC50 [7] | pEC50 [1] | pEC50 [3] | pEC50 [4] | CC50 [5] [µM] | MCC [6] [µM] | Activity [8] | Activity [9] | Activity [10] | Activity [11] | Activity [12] | Activity [13] | Activity [14] | Activity [15]
5 | CCCCCCCCCCc1cc2cn([C@H]3C[C@H](O)[C@@H](CO)O3)c(=O)nc2o1 | < 4.30 | – | – | < 4.30 | – | > 50 | > 50 | – | – | – | – | – | – | – | –
6 | O=c1nc2oc(CCCCCCCCCF)cc2cn1[C@H]1C[C@H](O)[C@@H](CO)O1 | < 4.70 | – | 7.66 | < 4.70 | 7.85 | 200 | > 50 | inactive | inactive | inactive | inactive | – | – | – | –
7 | O=c1nc2oc(CCCCCCCCCBr)cc2cn1[C@H]1C[C@H](O)[C@@H](CO)O1 | 4.30 | – | 7.59 | < 4.30 | 7.51 | > 50 | > 200 | inactive | – | – | – | inactive | inactive | – | –
8 | O=c1nc2oc(CCCCCCCCCCl)cc2cn1[C@H]1C[C@H](O)[C@@H](CO)O1 | 4.89 | – | 8.15 | 4.82 | 7.92 | 200 | > 200 | inactive | – | – | – | – | – | inactive | inactive
9 | O=c1nc2oc(CCCCCCCCCI)cc2cn1[C@H]1C[C@H](O)[C@@H](CO)O1 | < 4.30 | – | 7.21 | < 4.30 | 7.47 | > 200 | 50 | inactive | – | – | – | inactive | inactive | – | –
10 | Nc1nc2c(ncn2COCCO)c(=O)[nH]1 [ACYCLOVIR] | – | – | – | – | – | > 200 | > 200 | – | – | – | – | – | – | – | –

Source: ChEMBL document CHEMBL1132902, “Bicyclic nucleoside inhibitors of Varicella-Zoster Virus (VZV): the effect of a terminal halogen substitution in the side-chain” (Bioorg Med Chem Lett, 2000)
